biological target: CDK4/CyclinD1 (Homo sapiens, UniProt P11802); test: CDK4/CyclinD1 Flashplate assay, 96-well format, biotinylated-Rb peptide substrate; assay type: biochemical; conditions: not given
Experimental: This is a CDK4/CyclinD1 kinase assay in a 96-well Streptavidin-coated Flashplate with a biotinylated-Rb peptide substrate.
Each point is tested in duplicate
Biotinylated-Rb: Biotin-[…]
• 1. Prepare substrate: 1 mg/ml solution made fresh in PBS. • 2. Add 100 μg per well to the Flashplate. • 3. Incubate for 2 hours at RT. • 4. From 10 mM inhibitor stocks in DMSO, make 1 mM, 300 μM, 100 μM, 30 μM and 10 μM series of dilution in DMSO. • 5. Wash the Flashplate 3 times with 300 μl PBS to remove unbound peptide substrate. • 6. Add the CDK4/CyclinD1 kinase: 70 ng per well, in a volume of 90 μl in kinase buffer (except for “no enzyme” control wells). • 7. Add 1 μl^1 per well of inhibitor to test 10 μM, 3 μM, 1 μM, 0.3 μM and 0.1 μM in final concentration per 100 μl in each well. • 8. Shake gently the Flashplate 1 minute. • 9. Incubate 30 minutes on wet ice. • 10. Initiate the reaction with 10 μl kinase buffer containing 1 μM final cold ATP and 1 μCi final ^33P-ATP per well. • 11. Shake gently the Flashplate 1 minute. • 12. Incubate 45 minutes at RT (no shaking). • 13. Wash the Flashplate 3 times with 300 μl PBS • 14. Count to detect the incorporation of ^33P-ATP by the kinase to the Rb phosphorylation site.

Chain of CDK4/CyclinD1 (P11802 whole entry, species assumed): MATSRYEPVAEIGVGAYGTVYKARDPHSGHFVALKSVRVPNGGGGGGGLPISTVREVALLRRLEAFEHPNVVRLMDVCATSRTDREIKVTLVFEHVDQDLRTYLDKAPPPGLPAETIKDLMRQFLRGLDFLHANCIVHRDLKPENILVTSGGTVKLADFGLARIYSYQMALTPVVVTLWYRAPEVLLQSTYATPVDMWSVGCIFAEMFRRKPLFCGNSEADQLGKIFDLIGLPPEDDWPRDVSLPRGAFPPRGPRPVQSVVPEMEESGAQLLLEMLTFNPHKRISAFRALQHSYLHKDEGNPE
Chain of CDK4/CyclinD1 (P24385 whole entry partner, species assumed): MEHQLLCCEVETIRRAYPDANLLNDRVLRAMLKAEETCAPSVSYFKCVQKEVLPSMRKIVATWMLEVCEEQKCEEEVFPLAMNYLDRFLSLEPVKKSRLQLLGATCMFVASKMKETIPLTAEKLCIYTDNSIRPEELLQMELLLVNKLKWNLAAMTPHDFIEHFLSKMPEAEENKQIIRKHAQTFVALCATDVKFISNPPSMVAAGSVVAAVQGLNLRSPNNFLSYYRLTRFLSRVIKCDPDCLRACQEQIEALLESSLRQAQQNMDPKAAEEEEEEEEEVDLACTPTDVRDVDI

| SMILES | IC50 [µM] | inhibition at 10 µM [%] |
| --- | --- | --- |
| CCNCCNc1ccc(S(=O)(=O)Oc2ccc3[nH]c(NC(=O)C4CC4)nc3c2)cc1 [Example 60-s, 4-(2-Ethylamino-ethylamino)-benzenesulfonic acid 2-(cyclopropanecarbonyl-amino)-1H-benzoimidazol-5-yl ester] | 8 | – |
| CC(C)N(CCNc1ccc(S(=O)(=O)Oc2ccc3[nH]c(NC(=O)C4CC4)nc3c2)cc1)C(C)C [Example 60-t, 4-(2-Diisopropylamino-ethylamino)-benzenesulfonic acid 2-(cyclopropanecarbonyl-amino)-1H-benzoimidazol-5-yl ester] | 2 | – |
| O=C(Nc1nc2cc(OS(=O)(=O)c3ccc(NC4CN5CCC4CC5)cc3)ccc2[nH]1)C1CC1 (stereo not shown) [Example 60-v, 4-(1-Aza-bicyclo[2.2.2]-oct-3-ylamino)-benzenesulfonic acid 2-(cyclopropane-carbonyl-amino)-1H-benzoimidazol-5-yl ester] | 4.2 | – |
| O=C(Nc1nc2cc(OS(=O)(=O)c3ccc(NCCNc4ccccc4)cc3)ccc2[nH]1)C1CC1 [Example 60-w, 4-(2-Phenylamino-ethylamino)-benzenesulfonic acid 2-(cyclopropanecarbonyl-amino)-1H-benzoimidazol-5-yl ester] | 0.5 | – |
| NC(=O)[C@H]1CCCN1c1ccc(S(=O)(=O)Oc2ccc3[nH]c(NC(=O)C4CC4)nc3c2)cc1 [Example 60-y, 4-(2R-Carbamoyl-pyrrolidin-1-yl)-benzenesulfonic acid 2-(cyclopropanecarbonyl-amino)-1H-benzoimidazol-5-yl ester] | 2.5 | – |
| COC(=O)Nc1nc2ccc(OS(=O)(=O)c3ccc(OC(F)(F)F)cc3)cc2[nH]1 [Example 61] | 2.06 | – |
| COC(=O)Nc1nc2cc(OS(=O)(=O)c3c(C)noc3C)ccc2[nH]1 [Example 62-a, 3,5-Dimethyl-isoxazole-4-sulfonic acid 2-methoxycarbonylamino-1H-benzoimidazol-5-yl ester] | – | 50 |
| COC(=O)Nc1nc2cc(OS(=O)(=O)c3ccccc3F)ccc2[nH]1 [Example 62-d, 2-Fluoro-benzenesulfonic acid 2-methoxycarbonylamino-1H-benzoimidazol-5-yl ester] | 1.3 | – |
| COC(=O)Nc1nc2cc(OS(=O)(=O)c3cccc([N+](=O)[O-])c3)ccc2[nH]1 [Example 62-l, 3-Nitro-benzenesulfonic acid 2-methoxycarbonylamino-1H-benzoimidazol-5-yl ester] | 2.5 | – |
| COC(=O)Nc1nc2cc(OS(=O)(=O)c3cccc(C(F)(F)F)c3)ccc2[nH]1 [Example 62-m, 3-Trifluoromethyl-benzenesulfonic acid 2-methoxycarbonylamino-1H-benzoimidazol-5-yl ester] | 1.2 | – |
| COC(=O)Nc1nc2cc(OS(=O)(=O)c3ccccc3C#N)ccc2[nH]1 [Example 62-n, 2-Cyano-benzenesulfonic acid 2-methoxycarbonylamino-1H-benzoimidazol-5-yl ester] | 1 | – |
| COC(=O)Nc1nc2cc(OS(=O)(=O)c3ccccc3C(F)(F)F)ccc2[nH]1 [Example 62-o, 2-Trifluoromethyl-benzenesulfonic acid 2-methoxycarbonylamino-1H-benzoimidazol-5-yl ester] | 1 | – |
| COC(=O)Nc1nc2cc(OS(=O)(=O)c3ccc(F)cc3F)ccc2[nH]1 [Example 62-p, 2,4-Difluoro-benzenesulfonic acid 2-methoxycarbonylamino-1H-benzoimidazol-5-yl ester] | 0.7 | – |
| COC(=O)Nc1nc2cc(OS(=O)(=O)c3cc(F)ccc3C)ccc2[nH]1 [Example 62-q, 5-Fluoro-2-methyl-benzenesulfonic acid 2-methoxycarbonylamino-1H-benzoimidazol-5-yl ester] | 1.6 | – |
| COC(=O)Nc1nc2cc(OS(=O)(=O)c3cccc(F)c3)ccc2[nH]1 [Example 62-r, 3-Fluoro-benzenesulfonic acid 2-methoxycarbonylamino-1H-benzoimidazol-5-yl ester] | 2.5 | – |
| COC(=O)Nc1nc2cc(OS(=O)(=O)c3ccc(C#N)cc3)ccc2[nH]1 [Example 62-s, 4-Cyano-benzenesulfonic acid 2-methoxycarbonylamino-1H-benzoimidazol-5-yl ester] | 1.75 | – |
| COC(=O)Nc1nc2ccc(OS(=O)(=O)c3ccc(OCc4ccccc4)cc3)cc2[nH]1 [Example 63, 4-benzyloxy-benzenesulfonic acid 2-methoxycarbonylamino-1H-benzoimidazol-5-yl ester] | 1.5 | – |

| SMILES | IC50 [µM] | inhibition at 10 µM [%] |
| --- | --- | --- |
| CCOc1ccc(S(=O)(=O)Oc2ccc3nc(NC(=O)OC)[nH]c3c2)cc1 [Example 64-a, 4-Ethoxy-benzenesulfonic acid 2-methoxycarbonylamino-3H-benzoimidazol-5-yl ester] | 1 | – |
| COC(=O)Nc1nc2ccc(OS(=O)(=O)c3ccc(OCCN4CCOCC4)cc3)cc2[nH]1 [Example 64-b, 4-(2-Morpholin-4-yl-ethoxy)-benzenesulfonic acid 2-methoxycarbonylamino-3H-benzoimidazol-5-yl ester] | – | 50 |
| COCCOc1ccc(S(=O)(=O)Oc2ccc3nc(NC(=O)OC)[nH]c3c2)cc1 [Example 64-c, 4-(2-Methoxy-ethoxy)-benzenesulfonic acid 2-methoxycarbonylamino-3H-benzoimidazol-5-yl ester] | 4.37 | – |
| COC(=O)Nc1nc2ccc(OS(=O)(=O)c3ccc(OCCN4CCCCC4)cc3)cc2[nH]1 [Example 64-d, 4-(2-piperidin-1-yl-ethoxy)-benzenesulfonic acid 2-methoxycarbonylamino-3H-benzoimidazol-5-yl ester] | – | 50 |
| COC(=O)Nc1nc2cc(OS(=O)(=O)c3ccc(OCC(=O)N4CCN(C)CC4)cc3)ccc2[nH]1 [Example 66-a, 4-[2-(4-Methyl-piperazin-1-yl)-2-oxo-ethoxy]-benzenesulfonic acid 2-methoxycarbonylamino-1H-benzoimidazol-5-yl ester] | – | 19 |
| CCN(CC)CCCNC(=O)COc1ccc(S(=O)(=O)Oc2ccc3[nH]c(NC(=O)OC)nc3c2)cc1 [Example 66-b, 4-[(3-diethylamino-propylcarbamoyl)-methoxy]-benzenesulfonic acid 2-methoxycarbonylamino-1H-benzoimidazol-5-yl ester] | 3.05 | – |
| COC(=O)Nc1nc2ccc(OS(=O)(=O)c3ccc(NCC4CC4)cc3)cc2[nH]1 [Example 67, 4-(cyclopropylmethyl-amino)-benzene sulfonic acid 2-methoxycarbonylamino-1H-benzoimidazol-5-yl ester] | – | 91 |
| COCCNc1ccc(S(=O)(=O)Oc2ccc3[nH]c(NC(=O)OC)nc3c2)cc1 [Example 68-a, 4-(2-methoxy-ethylamino)-benzenesulfonic acid 2-methoxycarbonylamino-1H-benzoimidazol-5-yl ester] | – | 97 |
| COC(=O)Nc1nc2cc(OS(=O)(=O)c3ccc(NC(C)CO)cc3)ccc2[nH]1 (stereo not shown) [Example 68-b, 4-(2-hydroxy-1-methyl-ethylamino)-benzenesulfonic acid 2-methoxycarbonylamino-1H-benzoimidazol-5-yl ester] | – | 78 |
| O=S(=O)(Oc1ccc2[nH]c(Nc3ccccc3)nc2c1)c1ccc(NC2CCCC2)cc1 [Example 70-a, 4-Cyclopentylamino-benzenesulfonic acid 2-phenylamino-1H-benzoimidazol-5-yl ester] | 1.18 | – |
| COCCNc1ccc(S(=O)(=O)Oc2ccc3[nH]c(NC(=O)NCCN4CCOCC4)nc3c2)cc1 [Example 78-e, 4-(2-Methoxy-ethylamino)-benzenesulfonic acid 2-[3-(2-morpholin-4-yl-ethyl)-ureido]-1H-benzoimidazol-5-yl ester] | 0.6 | – |
| COCCNc1ccc(S(=O)(=O)Oc2ccc3[nH]c(NC(=O)NCc4ccccn4)nc3c2)cc1 [Example 78-f] | 0.1 | – |
| CCNC(=O)Nc1nc2cc(OS(=O)(=O)c3ccc(NCCOC)cc3)ccc2[nH]1 [Example 78-h, 4-(2-Methoxy-ethylamino)-benzenesulfonic acid 2-[3-(2-ethyl)-ureido]-1H-benzoimidazol-5-yl ester] | – | 90 |
| CC(CO)Nc1ccc(S(=O)(=O)Oc2ccc3[nH]c(NC(=O)NCCN4CCOCC4)nc3c2)cc1 (stereo not shown) [Example 78-i, 4-(2-Hydroxy-1-methyl-ethylamino)-benzenesulfonic acid 2-[3-(2-morpholin-4-yl-ethyl)-ureido]-1H-benzoimidazol-5-yl ester] | – | 97 |
| COCCNC(=O)Nc1nc2cc(OS(=O)(=O)c3ccc(NC(C)CO)cc3)ccc2[nH]1 (stereo not shown) [Example 78-k, 4-(2-Hydroxy-1-methyl-ethylamino)-benzenesulfonic acid 2-[3-(2-methoxy-ethyl)-ureido]-1H-benzoimidazol-5-yl ester] | – | 78 |
| CCNC(=O)Nc1nc2cc(OS(=O)(=O)c3ccc(NC(C)CO)cc3)ccc2[nH]1 (stereo not shown) [Example 78-l, 4-(2-Hydroxy-1-methyl-ethylamino)-benzenesulfonic acid 2-[3-(2-ethyl)-ureido]-1H-benzoimidazol-5-yl ester] | – | 100 |

same assay, conditions: at 10 μM

| SMILES | inhibition of CDK4/cyclinD1 at 10 μM [% inhibition at 10 μM] |
| --- | --- |
| O=C(NCc1ccccn1)Nc1nc2cc(OS(=O)(=O)c3ccc(OCc4ccccc4)cc3)ccc2[nH]1 [Example 78-n] | 54 |
